Patent US8999970B2, “Administration of an anti-obesity compound to individuals with renal impairment” (Arena Pharmaceuticals, Inc., priority 2010, dated 2015)
“Also recorded” adds a separate entry of the source.

Experiment: Clinical trial APD356-016: plasma and urine pharmacokinetics of lorcaserin, M1 and M5 after a 10 mg dose in subjects with renal impairment
Conditions: for Ae0-120 / fe0-120: urine; for CL renal / AUC(0-t) / Cmax / half-life / AUC0-inf / MRT inf / Vd/F / tmax: human, 10 mg; for CL renal: plasma and urine, ClR/F; for AUC(0-t) / Cmax / half-life / AUC0-inf / MRT inf / Vd/F / tmax: plasma; for MRT inf: MRTinf; for Vd/F: Vz/F; for tmax: median
Description: The interaction of renal insufficiency with the pharmacokinetics, tolerability and safety of lorcaserin were evaluated in a formal PK study in subjects with renal impairment and in the populations studied in phase 2 and phase 3 clinical studies.
The pharmacokinetic properties of lorcaserin in subjects with varying degrees of renal impairment were evaluated in clinical trial APD356-016. At the time of study conduct and analysis, subjects were assigned to renal impairment groups based on creatinine clearance calculated using IDEAL body weight (Table 1). This calculation was used to avoid overestimation of creatinine clearance due to the excess body weight (overweight and obese subjects were enrolled in the trial). Summaries of pharmacokinetic properties by group assignment using creatinine clearance calculated using ACTUAL body weights are also provided in the sections that follow.
The FDA expects a reasonable margin between anticipated exposures and exposures that may produce toxicity. A reasonable margin can vary depending on the expected toxicity, but generally is an order of magnitude (10 times), but can sometimes be less for mild toxicity.
Table 13. Summary of Plasma Concentrations (ng/mL) of HSO3-APD356 Metabolite over Time by Group: Severe Renal Impairment Not Receiving Dialysis (see Table 13 next page)
Subject number 3140-505 was on dialysis and grouped in the end stage renal disease group.

[1] = 10 mg dose, Mild, actual BW groups
[2] = 10 mg dose, Mild, ideal BW groups
[3] = 10 mg dose, Moderate, actual BW groups
[4] = 10 mg dose, Moderate, ideal BW groups
[5] = 10 mg dose, Normal, actual BW groups
[6] = 10 mg dose, Normal, ideal BW groups
[7] = 10 mg dose, Severe N = 1, actual BW groups
[8] = 10 mg dose, Severe, ideal BW groups
[9] = Moderate N = 8, actual BW groups
[10] = oral, 10 mg dose, Mild, actual BW groups
[11] = oral, 10 mg dose, Mild, ideal BW groups
[12] = oral, 10 mg dose, Moderate, actual BW groups
[13] = oral, 10 mg dose, Moderate, ideal BW groups
[14] = oral, 10 mg dose, Normal, actual BW groups
[15] = oral, 10 mg dose, Normal, ideal BW groups
[16] = oral, 10 mg dose, Severe N = 1, actual BW groups
[17] = oral, 10 mg dose, Severe, ideal BW groups

For `C[C@H]1CNCCc2ccc(Cl)cc21` [Lorcaserin, (R)-8-chloro-1-methyl-2,3,4,5-tetrahydro-1H-3-benzazepine], the “% AUC0-inf Extrapolated” value [1] was 4.54%, the Cl/F [1] was 17.3 L/h and the ClNR/F [1] was 16.7 L/h. The T1/2z [1] was 14.6 h, the “% AUC0-inf Extrapolated” value [2] was 3.36% and the Cl/F [2] was 13.3 L/h. For the same compound, the ClNR/F [2] was 12.8 L/h, the T1/2z [2] was 13.0 h and the “% AUC0-inf Extrapolated” value [3] was 3.74%. It also gave a Cl/F [3] of 18.9 L/h, a ClNR/F [3] of 18.2 L/h and a T1/2z [3] of 14.9 h. For the same compound, the “% AUC0-inf Extrapolated” value [4] was 4.92%, the Cl/F [4] was 17.7 L/h and the ClNR/F [4] was 17.0 L/h. For the same compound, the T1/2z [4] was 15.9 h, the “% AUC0-inf Extrapolated” value [5] was 3.57% and the Cl/F [5] was 15.6 L/h. For the same compound, the ClNR/F [5] was 15.1 L/h, the T1/2z [5] was 12.1 h and the “% AUC0-inf Extrapolated” value [6] was 3.81%. The Cl/F [6] was 17.5 L/h, the ClNR/F [6] was 17.1 L/h and the T1/2z [6] was 11.0 h. The “% AUC0-inf Extrapolated” value [7] was 3.70%, the Cl/F [7] was 17.6 L/h and the ClNR/F [7] was 17.2 L/h. The T1/2z [7] was 18.8 h, the “% AUC0-inf Extrapolated” value [8] was 3.59% and the Cl/F [8] was 19.7 L/h. For the same compound, the ClNR/F [8] was 19.0 L/h, the T1/2z [8] was 15.0 h and the Ae0-120 [1] was 297 µg. The fe0-120 [1] was 0.0352, the Ae0-120 [2] was 326 µg and the fe0-120 [2] was 0.0386. It also gave an Ae0-120 [3] of 304 µg, a fe0-120 [3] of 0.0360 and an Ae0-120 [4] of 327 µg. For the same compound, the fe0-120 [4] was 0.0387, the Ae0-120 [5] was 257 µg and the fe0-120 [5] was 0.0304. For the same compound, the Ae0-120 [6] was 185 µg, the fe0-120 [6] was 0.0220 and the Ae0-120 [7] was 204 µg. It also gave a fe0-120 [7] of 0.0242, an Ae0-120 [8] of 280 µg and a fe0-120 [8] of 0.0332. For the same compound, the Removal by hemodialysis (ESRD) was “not removed; also recorded: not cleared”, the “Geometric Mean Ratio of LSM (90% CI), AUC0-inf, relative to Normal Renal Function Group” value (Mild N = 10, actual BW groups) was 0.921 (0.735, 1.15) and the “Geometric Mean Ratio of LSM (90% CI), AUClast, relative to Normal Renal Function Group” value (Mild N = 10, actual BW groups) was 0.912 (0.723, 1.15). The “Geometric Mean Ratio of LSM (90% CI), Cmax, relative to Normal Renal Function Group” value (Mild N = 10, actual BW groups) was 0.819 (0.652, 1.03), the “Geometric Mean Ratio of LSM (90% CI), AUC0-inf, relative to Normal Renal Function Group” value (Mild, ideal BW groups) was 1.30 (1.01, 1.67) and the “Geometric Mean Ratio of LSM (90% CI), AUClast, relative to Normal Renal Function Group” value (Mild, ideal BW groups) was 1.31 (1.01, 1.69). The “Geometric Mean Ratio of LSM (90% CI), Cmax, relative to Normal Renal Function Group” value (Mild, ideal BW groups) was 0.991 (0.764, 1.29), the “Geometric Mean Ratio of LSM (90% CI), AUC0-inf, relative to Normal Renal Function Group” value [9] was 0.869 (0.683, 1.11) and the “Geometric Mean Ratio of LSM (90% CI), AUClast, relative to Normal Renal Function Group” value [9] was 0.868 (0.678, 1.11). The “Geometric Mean Ratio of LSM (90% CI), Cmax, relative to Normal Renal Function Group” value [9] was 0.738 (0.579, 0.941), the “Geometric Mean Ratio of LSM (90% CI), AUC0-inf, relative to Normal Renal Function Group” value (Moderate, ideal BW groups) was 1.03 (0.806, 1.32) and the “Geometric Mean Ratio of LSM (90% CI), AUClast, relative to Normal Renal Function Group” value (Moderate, ideal BW groups) was 1.02 (0.791, 1.32). The “Geometric Mean Ratio of LSM (90% CI), Cmax, relative to Normal Renal Function Group” value (Moderate, ideal BW groups) was 0.697 (0.537, 0.904), the “Geometric Mean Ratio of LSM (90% CI), AUC0-inf, relative to Normal Renal Function Group” value (Severe N = 1, actual BW groups) was 0.861 (0.494, 1.50) and the “Geometric Mean Ratio of LSM (90% CI), AUClast, relative to Normal Renal Function Group” value (Severe N = 1, actual BW groups) was 0.861 (0.487, 1.52). The “Geometric Mean Ratio of LSM (90% CI), Cmax, relative to Normal Renal Function Group” value (Severe N = 1, actual BW groups) was 0.468 (0.267, 0.821), the “Geometric Mean Ratio of LSM (90% CI), AUC0-inf, relative to Normal Renal Function Group” value (Severe, ideal BW groups) was 0.931 (0.727, 1.19) and the “Geometric Mean Ratio of LSM (90% CI), AUClast, relative to Normal Renal Function Group” value (Severe, ideal BW groups) was 0.933 (0.723, 1.20). For the same compound, the “Geometric Mean Ratio of LSM (90% CI), Cmax, relative to Normal Renal Function Group” value (Severe, ideal BW groups) was 0.686 (0.529, 0.891), the CL renal [10] was 10.3 mL/min and the CL renal [11] was 8.88 mL/min. For the same compound, the CL renal [12] was 11.1 mL/min, the CL renal [13] was 11.1 mL/min and the CL renal [14] was 7.8 mL/min. It also gave a CL renal [15] of 6.53 mL/min, a CL renal [16] of 7.27 mL/min and a CL renal [17] of 11 mL/min. The AUC(0-t) (AUC24 hr, ESRD, 10 mg QD Authentic, Day 1) was 618 ng·h/mL, the AUC(0-t) (AUC24 hr, Mild, 10 mg QD Authentic, Day 1) was 623 ng·h/mL and the AUC(0-t) (AUC24 hr, Moderate, 10 mg QD Authentic, Day 1) was 515 ng·h/mL. It also gave an AUC(0-t) (AUC24 hr, Normal, 10 mg QD Authentic, Day 1) of 482 ng·h/mL, an AUC(0-t) (AUC24 hr, Severe, 10 mg QD Authentic, Day 1) of 469 ng·h/mL and a Cmax (ESRD, 10 mg QD Authentic, Day 1) of 27.2 ng/mL. It also gave a Cmax (Mild, 10 mg QD Authentic, Day 1) of 36.3 ng/mL, a Cmax (Moderate, 10 mg QD Authentic, Day 1) of 26.2 ng/mL and a Cmax (Normal, 10 mg QD Authentic, Day 1) of 37 ng/mL. The Cmax (Severe, 10 mg QD Authentic, Day 1) was 26.4 ng/mL, the half-life (t1/2, ESRD, 10 mg QD Authentic, Day 1) was 43.8 h and the half-life (t1/2, Mild, 10 mg QD Authentic, Day 1) was 13 h. For the same compound, the half-life (t1/2, Moderate, 10 mg QD Authentic, Day 1) was 15.9 h, the half-life (t1/2, Normal, 10 mg QD Authentic, Day 1) was 11 h and the half-life (t1/2, Severe, 10 mg QD Authentic, Day 1) was 15 h. For the same compound, the AUC0-inf [10] was 535 ng·h/mL, the AUC0-inf [11] was 644 ng·h/mL and the AUC0-inf [12] was 516 ng·h/mL. The AUC0-inf [13] was 538 ng·h/mL, the AUC0-inf [14] was 569 ng·h/mL and the AUC0-inf [15] was 501 ng·h/mL. It also gave an AUC0-inf [16] of 478 ng·h/mL, an AUC0-inf [17] of 486 ng·h/mL and an AUC(0-t) (oral, AUC0-t, 10 mg dose, Mild, actual BW groups) of 513 ng·h/mL. For the same compound, the AUC(0-t) (oral, AUC0-t, 10 mg dose, Mild, ideal BW groups) was 623 ng·h/mL, the AUC(0-t) (oral, AUC0-t, 10 mg dose, Moderate, actual BW groups) was 497 ng·h/mL and the AUC(0-t) (oral, AUC0-t, 10 mg dose, Moderate, ideal BW groups) was 515 ng·h/mL. It also gave an AUC(0-t) (oral, AUC0-t, 10 mg dose, Normal, actual BW groups) of 549 ng·h/mL, an AUC(0-t) (oral, AUC0-t, 10 mg dose, Normal, ideal BW groups) of 482 ng·h/mL and an AUC(0-t) (oral, AUC0-t, 10 mg dose, Severe N = 1, actual BW groups) of 461 ng·h/mL. The AUC(0-t) (oral, AUC0-t, 10 mg dose, Severe, ideal BW groups) was 469 ng·h/mL, the Cmax [10] was 30.2 ng/mL and the Cmax [11] was 36.3 ng/mL. The Cmax [12] was 27.6 ng/mL, the Cmax [13] was 26.2 ng/mL and the Cmax [14] was 36 ng/mL. It also gave a Cmax [15] of 37 ng/mL, a Cmax [16] of 16.4 ng/mL and a Cmax [17] of 26.4 ng/mL. The MRT inf [10] was 19.3 h, the MRT inf [11] was 18 h and the MRT inf [12] was 20.8 h. For the same compound, the MRT inf [13] was 21.1 h, the MRT inf [14] was 16.5 h and the MRT inf [15] was 14.8 h. For the same compound, the MRT inf [16] was 30.8 h, the MRT inf [17] was 21.7 h and the Vd/F [10] was 361 L. For the same compound, the Vd/F [11] was 248 L, the Vd/F [12] was 381 L and the Vd/F [13] was 399 L. For the same compound, the Vd/F [14] was 266 L, the Vd/F [15] was 276 L and the Vd/F [16] was 479 L. For the same compound, the Vd/F [17] was 401 L, the tmax [10] was 2.5 h and the tmax [11] was 4.5 h. The tmax [12] was 2.5 h, the tmax [13] was 2.5 h and the tmax [14] was 2 h. It also gave a tmax [15] of 2 h, a tmax [16] of 4 h and a tmax [17] of 3 h. For the same compound, the Fractional excretion (normal renal function) was 2.2%.
